From patent publication US20260116868A1 (Arcus Biosciences, Inc., priority 2023, published 2026)

Each compound was assayed against T1, Cbl-b (Homo sapiens, UniProt Q13191) (assay: Cbl-b probe displacement HTRF binding assay). Settings: 0.4 nM Cbl-b, 150 nM BODIPY probe.
T1 construct: biotin (biotinylated protein)
Summary of the method: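 Compound competes with BODIPY probe (150 nM) for biotinylated Cbl-b (0.4 nM) in HEPES/NaCl/Triton/TCEP/BSA buffer; 60 min preincubation, 15 min with probe, room temperature. Tb-streptavidin HTRF read; % displacement vs DMSO and no-protein controls, IC50 from four-parameter fit.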

T1 sequence (Q13191 whole entry, species assumed): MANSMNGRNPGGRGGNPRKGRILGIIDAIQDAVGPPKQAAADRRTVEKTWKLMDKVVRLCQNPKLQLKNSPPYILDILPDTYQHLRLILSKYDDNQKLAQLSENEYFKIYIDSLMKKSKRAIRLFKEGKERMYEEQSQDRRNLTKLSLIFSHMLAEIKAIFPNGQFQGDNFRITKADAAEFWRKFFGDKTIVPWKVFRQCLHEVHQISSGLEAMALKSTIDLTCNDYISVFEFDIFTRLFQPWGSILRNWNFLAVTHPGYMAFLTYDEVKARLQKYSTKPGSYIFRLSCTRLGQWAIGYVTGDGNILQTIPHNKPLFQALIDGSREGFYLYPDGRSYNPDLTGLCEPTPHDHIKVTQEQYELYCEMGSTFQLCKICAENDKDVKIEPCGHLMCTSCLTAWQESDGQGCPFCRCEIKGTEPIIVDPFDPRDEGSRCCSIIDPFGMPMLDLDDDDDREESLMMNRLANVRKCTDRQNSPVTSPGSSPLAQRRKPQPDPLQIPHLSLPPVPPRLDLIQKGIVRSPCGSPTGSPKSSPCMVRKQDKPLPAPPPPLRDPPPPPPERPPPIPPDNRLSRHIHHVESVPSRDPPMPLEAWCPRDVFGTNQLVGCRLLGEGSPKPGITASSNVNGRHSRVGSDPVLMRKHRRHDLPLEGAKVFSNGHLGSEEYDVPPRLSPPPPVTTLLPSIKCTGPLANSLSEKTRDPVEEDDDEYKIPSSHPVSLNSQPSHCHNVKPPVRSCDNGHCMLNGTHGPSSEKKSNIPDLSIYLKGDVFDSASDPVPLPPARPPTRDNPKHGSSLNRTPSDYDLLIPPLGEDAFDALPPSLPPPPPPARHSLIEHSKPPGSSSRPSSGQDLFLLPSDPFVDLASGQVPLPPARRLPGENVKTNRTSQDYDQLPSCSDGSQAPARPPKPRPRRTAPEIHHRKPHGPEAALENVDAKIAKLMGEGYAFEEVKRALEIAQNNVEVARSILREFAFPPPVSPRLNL

IC50, < 100 nM:
CCOc1cc(-c2ccc(Cl)cc2C(=O)N2CC(F)(F)C2)cc(NC(=O)c2cc(CNCC3CC3)cn(C3CC3)c2=O)n1 [Example 240]
Cc1ccc(-c2cc(NC(=O)c3cc(CNCC(C)C)cn(C4CC4)c3=O)nc(OC(C)C)c2)c(C(=O)N2CC(F)C2)c1 [Example 287]
CO[C@@H](C)CNCc1cc(C(=O)Nc2cc(-c3ccc(Cl)cc3C(=O)N3CC(F)C3)cc(C3CC3)n2)c(=O)n(C2CC2)c1 [Example 248]
CO[C@@H](C)CNCc1cc(C(=O)Nc2cc(-c3ccc(F)cc3C(=O)N3CC(F)(F)C3)cc(C3CC3)c2)c(=O)n(C2CC2)c1 [Example 396]
C[C@H](NCc1cc(C(=O)Nc2cc(-c3c(F)cc(C#N)cc3C(=O)N3CC(F)(F)C3)cc(C3CC3)n2)c(=O)n(C2CC2)c1)C1CC1 [Example 232]
CO[C@@H](C)CNCc1cc(C(=O)Nc2cc(-c3ccc(OC(F)F)cc3C(=O)N3CC(F)C3)cc(OC(C)C)n2)c(=O)n(C)c1 [Example 263]
CO[C@@H](C)CNCc1cc(C(=O)Nc2cc(-c3ccc(C#N)cc3C(=O)N3CCC3)cc(C3CC3)n2)c(=O)n(C2CC2)c1 [Example 364]
COc1ccc(-c2cc(NC(=O)c3cc(CN[C@@H](C)C4CCC4)cn(C)c3=O)nc(OC(C)C)c2)c(C(=O)N2CC(F)(F)C2)c1 [Example 292]
C[C@H](NCc1cc(C(=O)Nc2cc(-c3c(F)cc(C#N)cc3C(=O)N3CC(F)(F)C3)cc(C3CC3)n2)c(=O)n(C)c1)C1CC1 [Example 236]
COc1ccc(-c2cc(NC(=O)c3cc(CNCC(C)C)cn(C4CC4)c3=O)nc(C3CC3)c2)c(C(=O)N2CC(F)(F)C2)c1 [Example 151, N-(6-Cyclopropyl-4-{2-[(3,3-difluoro-1-azetidinyl)carbonyl]-4-methoxyphenyl}-2-pyridyl)-1-cyclopropyl-5-[(isobutylamino)methyl]-2-oxo-1,2-dihydronicotinamide]
COc1ccc(-c2cc(NC(=O)c3cc(CNC[C@H](C)OC)cn(C4CC4)c3=O)nc(OC(C)C)c2)c(C(=O)N2CC(F)C2)c1 [Example 261]
O=C(Nc1cc(-c2c(F)cc(Cl)cc2C(=O)N2CC(F)(F)C2)cc(C2CC2)n1)c1cc(CNC[C@@H]2CCCO2)cn(C2CC2)c1=O [Example 145, N-(4-{4-chloro-2-[(3,3-difluoro-1-azetidinyl)carbonyl]-6-fluorophenyl}-6-cyclopropyl-2-pyridyl)-1-cyclopropyl-2-oxo-5-[({[(S)-perhydro-2-furyl]methyl}amino)methyl]-1,2-dihydronicotinamide]
CCNc1cc(-c2ccc(OC(F)F)cc2C(=O)N2CC(F)C2)cc(NC(=O)c2cc(CNC[C@@H]3CCCO3)cn(C)c2=O)n1 [Example 316]
Cn1cc(CNC[C@@H]2CCCO2)cc(C(=O)Nc2cc(-c3ccc(C#N)cc3C(=O)N3CC(F)(F)C3)cc(OCF)n2)c1=O [Example 350]
CC(C)Oc1cc(-c2c(F)cc(C#N)cc2C(=O)N2CC(F)(F)C2)cc(NC(=O)c2cc(CN[C@@H](C)C3CCC3)cn(C)c2=O)n1 [Example 227]
C[C@H](NCc1cc(C(=O)Nc2cc(-c3ccc(C#N)cc3C(=O)N3CC(F)(F)C3)cc(C3CC3)n2)c(=O)n(C)c1)C1CCC1 [Example 167]
C[C@H](NCc1cc(C(=O)Nc2cc(-c3ccc(C#N)cc3C(=O)N3CC(F)(F)C3)cc(OCC(F)F)n2)c(=O)n(C2CC2)c1)C1CCC1 [Example 130, N-(4-{4-cyano-2-[(3,3-difluoro-1-azetidinyl)carbonyl]phenyl}-6-(2,2-difluoroethoxy)-2-pyridyl)-5-{[(S)-1-cyclobutylethylamino]methyl}-1-cyclopropyl-2-oxo-1,2-dihydronicotinamide]
CC(C)Oc1cc(-c2ccc(Cl)cc2C(=O)N2CC(F)C2)cc(NC(=O)c2cc(CNC[C@@H]3CCCO3)cn(C3CC3)c2=O)n1 [Example 271]
N#Cc1ccc(-c2cc(NC(=O)c3cc(CNC[C@@H]4COCCO4)cn(C4CC4)c3=O)nc(C3CC3)c2)c(C(=O)N2CC(F)(F)C2)c1 [Example 369]
Cn1cc(CNC[C@@H]2CCCCO2)cc(C(=O)Nc2cc(-c3ccc(C#N)cc3C(=O)N3CC(F)(F)C3)cc(C3CC3)n2)c1=O [Example 190]
N#Cc1ccc(-c2cc(NC(=O)c3cc(CNC[C@@H]4CCOC4)cn(C4CC4)c3=O)nc(C3CC3)c2)c(C(=O)N2CC(F)(F)C2)c1 [Example 412]
COc1ccc(-c2cc(NC(=O)c3cc(CNCC(C)C)cn(C)c3=O)nc(C3CC3)c2)c(C(=O)N2CC(F)C2)c1 [Example 315]
Cc1ccc(-c2cc(NC(=O)c3cc(CN[C@@H](C)C4CCC4)cn(C4CC4)c3=O)nc(OC(C)C)c2)c(C(=O)N2CC(F)C2)c1 [Example 277]
COc1ccc(-c2cc(NC(=O)c3cc(CN[C@@H](C)C4CCC4)cn(C)c3=O)nc(OC(C)C)c2)c(C(=O)N2CC(F)C2)c1 [Example 274]
CO[C@@H](C)CNCc1cc(C(=O)Nc2cc(-c3c(F)cc(C#N)cc3C(=O)N3CC(F)(F)C3)cc(OC(C)C)n2)c(=O)n(C2CC2)c1 [Example 127, N-(4-{4-cyano-2-[(3,3-difluoro-1-azetidinyl)carbonyl]-6-fluorophenyl}-6-isopropoxy-2-pyridyl)-1-cyclopropyl-5-{[(S)-2-methoxypropylamino]methyl}-2-oxo-1,2-dihydronicotinamide]
CC(C)Oc1cc(-c2c(F)cc(C#N)cc2C(=O)N2CC(F)(F)C2)cc(NC(=O)c2cc(CNC[C@@H]3CCCO3)cn(C)c2=O)n1 [Example 239]
CO[C@@H](C)CNCc1cc(C(=O)Nc2cc(-c3ccc(Cl)cc3C(=O)N3CC(F)(F)C3)cc(OCC(F)(F)F)n2)c(=O)n(C2CC2)c1 [Example 163]
CO[C@@H](C)CNCc1cc(C(=O)Nc2cc(-c3ccc(F)cc3C(=O)N3CC(F)(F)C3)cc(C3CC3)n2)c(=O)n(C2CC2)c1 [Example 360]
Cn1cc(CNC[C@@H]2CCCO2)cc(C(=O)Nc2cc(-c3ccc(OC(F)F)cc3C(=O)N3CC(F)(F)C3)cc(C3CC3)n2)c1=O [Example 185]
Cn1cc(CNCC2CC2)cc(C(=O)Nc2cc(-c3ccc(C#N)cc3C(=O)N3CC(F)(F)C3)cc(C3CC3)n2)c1=O [Example 192]
CO[C@@H](C)CNCc1cc(C(=O)Nc2cc(-c3ccc(OC(F)F)cc3C(=O)N3CC(F)(F)C3)cc(OC(C)C)n2)c(=O)n(C2CC2)c1 [Example 197]
CO[C@@H](C)[C@H](C)NCc1cc(C(=O)Nc2cc(-c3c(F)cc(C#N)cc3C(=O)N3CC(F)(F)C3)cc(OC(C)C)n2)c(=O)n(C)c1 [Example 226]
O=C(Nc1cc(-c2ccc(OC(F)F)cc2C(=O)N2CC(F)(F)C2)cc(C2CC2)n1)c1cc(CNC[C@@H]2CCCO2)cn(C2CC2)c1=O [Example 325]
CO[C@@H](C)CNCc1cc(C(=O)Nc2cc(-c3ccc(F)cc3C(=O)N3CC(F)(F)C3)cc(OC(C)C)n2)c(=O)n(C2CC2)c1 [Example 137, N-(4-{2-[(3,3-difluoro-1-azetidinyl)carbonyl]-4-fluorophenyl}-6-isopropoxy-2-pyridyl)-1-cyclopropyl-5-{[(S)-2-methoxypropylamino]methyl}-2-oxo-1,2-dihydronicotinamide]
N#Cc1ccc(-c2cc(NC(=O)c3cc(CNC[C@@H]4CCCO4)cn(C4CC4)c3=O)nc(OCC(F)F)c2)c(C(=O)N2CC(F)(F)C2)c1 [Example 132, N-(4-{4-cyano-2-[(3,3-difluoro-1-azetidinyl)carbonyl]phenyl}-6-(2,2-difluoroethoxy)-2-pyridyl)-1-cyclopropyl-2-oxo-5-[({[(S)-perhydro-2-furyl]methyl}amino)methyl]-1,2-dihydronicotinamide]
CO[C@@H](C)CNCc1cc(C(=O)Nc2cc(-c3c(F)cc(F)cc3C(=O)N3CC(F)(F)C3)cc(C3CC3)n2)c(=O)n(C2CC2)c1 [Example 367]
Cn1cc(CNC[C@@H]2COCCO2)cc(C(=O)Nc2cc(-c3ccc(OC(F)F)cc3C(=O)N3CC(F)(F)C3)cc(C3CC3)n2)c1=O [Example 110, N-(6-cyclopropyl-4-{2-[(3,3-difluoro-1-azetidinyl)carbonyl]-4-difluoromethoxyphenyl}-2-pyridyl)-5-[({[(R)-1,4-dioxan-2-yl]methyl}amino)methyl]-1-methyl-2-oxo-1,2-dihydronicotinamide]
CC(C)Oc1cc(-c2ccc(OC(F)F)cc2C(=O)N2CC(F)C2)cc(NC(=O)c2cc(CNC[C@@H]3CCCO3)cn(C)c2=O)n1 [Example 297]
CO[C@@H](C)CNCc1cc(C(=O)Nc2cc(-c3ccc(OC(F)F)cc3C(=O)N3CC(F)(F)C3)cc(OC(C)C)n2)c(=O)n(C)c1 [Example 113, N-(4-{2-[(3,3-difluoro-1-azetidinyl)carbonyl]-4-difluoromethoxyphenyl}-6-isopropoxy-2-pyridyl)-5-{[(S)-2-methoxypropylamino]methyl}-1-methyl-2-oxo-1,2-dihydronicotinamide]
COCCNCc1cc(C(=O)Nc2cc(-c3ccc(Cl)cc3C(=O)N3CC4(COC4)C3)cc(C3CC3)n2)c(=O)n(C2CC2)c1 [Example 306]
C[C@H]1CCCN(Cc2cc(C(=O)Nc3cc(-c4ccc(C#N)cc4C(=O)N4CC(F)(F)C4)cc(C4CC4)n3)c(=O)n(C3CC3)c2)C1 [Example 399]
